According to ChEMBL document CHEMBL1201862, “PubChem BioAssay data set” (2004):
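1) Cells in 96-well plates. 2) Compound, 48 h, 5 concentrations. 3) Linear interpolation between surrounding doses. 4) Unreached endpoint = highest concentration. The concentration for 50% growth inhibition is given as GI50.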 Calls of active or inactive are those of the source. No stated cut-off is given here; in the data, active = GI50 up to about 1.1 µM and inactive = higher.

What was measured:
Experiment in all cases: DTP human tumour cell line panel, 48 h
[1] = test system: OVCAR-5
[2] = test system: OVCAR-3
[3] = test system: UACC-257
[4] = test system: TK-10
[5] = test system: SK-MEL-28
[6] = test system: HCT-116
[7] = test system: SK-MEL-5
[8] = test system: RXF 393
[9] = test system: HCT-15
[10] = test system: COLO 205
[11] = test system: DLD-1
[12] = test system: A549
[13] = test system: CAKI-1
[14] = test system: EKVX
[15] = test system: 786-0
[16] = test system: MDA-N
[17] = test system: PC-3
[18] = test system: BT-549
[19] = test system: MDA-MB-435

Row | Compound | GI50 [1] | GI50 [2] | GI50 [3] | GI50 [4] | GI50 [5] | GI50 [6] | GI50 [7] | GI50 [8] | GI50 [9] | GI50 [10] | GI50 [11] | GI50 [12] | GI50 [13] | GI50 [14] | GI50 [15] | GI50 [16] | GI50 [17] | GI50 [18] | GI50 [19]
1 | O=C(O)c1cc2c3ccccc3nc-2c[nH]1 | > 100 µM (inactive) | > 100 µM (inactive) | > 100 µM (inactive) | > 100 µM (inactive) | > 100 µM (inactive) | > 100 µM (inactive) | > 100 µM (inactive) | > 100 µM (inactive) | > 100 µM | > 100 µM (inactive) | > 100 µM (inactive) | > 100 µM (inactive) | > 100 µM (inactive) | > 100 µM (inactive) | > 100 µM (inactive) | – | – | – | –
2 | CCOC(=O)/C(C(=O)c1ccccc1)=C1/NCCN1C | > 100 µM (inactive) | > 100 µM (inactive) | > 100 µM (inactive) | – | > 100 µM (inactive) | > 100 µM (inactive) | > 100 µM (inactive) | > 100 µM (inactive) | > 100 µM | > 100 µM (inactive) | > 100 µM (inactive) | > 100 µM (inactive) | > 100 µM (inactive) | > 100 µM (inactive) | > 100 µM (inactive) | – | – | – | –
3 | Cc1nc2nn(C)cc2c(=O)n1/N=C/c1ccccc1 | > 100 µM (inactive) | > 100 µM (inactive) | > 100 µM (inactive) | > 100 µM (inactive) | > 100 µM (inactive) | > 100 µM (inactive) | > 100 µM (inactive) | > 100 µM (inactive) | > 100 µM | > 100 µM (inactive) | > 100 µM (inactive) | > 100 µM (inactive) | – | > 100 µM (inactive) | > 100 µM (inactive) | – | – | – | –
4 | O=C1C[C@@H]2[C@@H](CCC23CCCC3)N1 | > 100 µM (inactive) | > 100 µM (inactive) | > 100 µM (inactive) | > 100 µM (inactive) | > 100 µM (inactive) | > 100 µM (inactive) | > 100 µM (inactive) | > 100 µM (inactive) | > 100 µM | > 100 µM (inactive) | > 100 µM (inactive) | > 100 µM (inactive) | > 100 µM (inactive) | > 100 µM (inactive) | > 100 µM (inactive) | – | – | – | –
5 | CC1=C(c2ccccc2)C(c2ccccc2)=C(c2ccccc2)C2(c3ccccc3)C(=O)C(C)CN12 (stereo unspecified) | 49.9 µM (inactive) | 34.7 µM (inactive) | 30.5 µM (inactive) | – | > 100 µM (inactive) | 45.3 µM (inactive) | 59 µM (inactive) | 26.1 µM (inactive) | 61.2 µM | – | 61.8 µM (inactive) | 57.1 µM (inactive) | 57.3 µM (inactive) | 41.4 µM (inactive) | 30.6 µM (inactive) | – | – | – | –
6 | Cc1ccc(NC(=O)CC/C(CC(=O)C(C)(C)C)=N/NC(=O)C(N)=O)cc1C | > 100 µM (inactive) | > 100 µM (inactive) | > 100 µM (inactive) | > 100 µM (inactive) | > 100 µM (inactive) | > 100 µM (inactive) | > 100 µM (inactive) | > 100 µM (inactive) | > 100 µM | > 100 µM (inactive) | > 100 µM (inactive) | > 100 µM (inactive) | > 100 µM (inactive) | > 100 µM (inactive) | > 100 µM (inactive) | – | – | – | –
7 | Cc1c(C)n(COCCO)c2ncnc(N)c12 | – | > 100 µM (inactive) | – | > 100 µM (inactive) | > 100 µM (inactive) | – | > 100 µM (inactive) | > 100 µM (inactive) | > 100 µM | > 100 µM (inactive) | > 100 µM (inactive) | > 100 µM (inactive) | > 100 µM (inactive) | > 100 µM (inactive) | > 100 µM (inactive) | – | – | – | –
8 | COc1ccc(/C=C2\CCC(CN(C)C)C2=O)cc1 (stereo unspecified) | 13.6 µM (inactive) | 4.12 µM (inactive) | 3.75 µM (inactive) | 5.98 µM (inactive) | 5.75 µM (inactive) | 2.29 µM (inactive) | 8.69 µM (inactive) | 2.94 µM (inactive) | 2.29 µM | 3.42 µM (inactive) | 3.62 µM (inactive) | 12.2 µM (inactive) | 2.4 µM (inactive) | 17.8 µM (inactive) | 1.65 µM (inactive) | 3.44 µM (inactive) | 5.12 µM (inactive) | 3.26 µM (inactive) | 1.88 µM (inactive)
9 | CN(C)c1ccc(/C=N\N2C(=O)c3ccccc3C2=O)cc1 | > 100 µM (inactive) | > 100 µM (inactive) | > 100 µM (inactive) | > 100 µM (inactive) | > 100 µM (inactive) | > 100 µM (inactive) | > 100 µM (inactive) | > 100 µM (inactive) | > 100 µM | – | > 100 µM (inactive) | > 100 µM (inactive) | > 100 µM (inactive) | > 100 µM (inactive) | > 100 µM (inactive) | – | – | – | –
